Results: the supplement of paper PMC11451515

Tested on: SEM cells
Test: cell viability relative to DMSO control; higher = less cytotoxic
Conditions: 48 h
Method in brief: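 Before seeding, each leukemia line was adapted for at least four passages in each medium. NOMO1 or SEM cells (500 cells/well) and P12-Ichikawa cells (1000 cells/well) went into 1536-well plates at 5 μl, then received library compounds in DMSO by pin dosing across 11 threefold concentrations, 47 μM to 0.79 nM. Readout was CellTiter-Glo One luminescence after 48 h at 37°C, and viability is given as a per-plate percentage of DMSO wells, with cell-free wells as background.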

[1] = HPLM + 10% dialyzed FBS, 0.000781 µM
[2] = HPLM + 10% dialyzed FBS, 0.00234 µM
[3] = HPLM + 10% dialyzed FBS, 0.00702 µM
[4] = HPLM + 10% dialyzed FBS, 0.0211 µM
[5] = HPLM + 10% dialyzed FBS, 0.0632 µM
[6] = HPLM + 10% dialyzed FBS, 0.19 µM
[7] = HPLM + 10% dialyzed FBS, 0.569 µM
[8] = HPLM + 10% dialyzed FBS, 1.71 µM
[9] = HPLM + 10% dialyzed FBS, 5.12 µM
[10] = HPLM + 10% dialyzed FBS, 15.4 µM
[11] = HPLM + 10% dialyzed FBS, 46.1 µM
[12] = RPMI 5 mM glucose + 10% FBS, 0.000781 µM
[13] = RPMI 5 mM glucose + 10% FBS, 0.00234 µM
[14] = RPMI 5 mM glucose + 10% FBS, 0.00702 µM
[15] = RPMI 5 mM glucose + 10% FBS, 0.0211 µM
[16] = RPMI 5 mM glucose + 10% FBS, 0.0632 µM
[17] = RPMI 5 mM glucose + 10% FBS, 0.19 µM
[18] = RPMI 5 mM glucose + 10% FBS, 0.569 µM
[19] = RPMI 5 mM glucose + 10% FBS, 1.71 µM
[20] = RPMI 5 mM glucose + 10% FBS, 5.12 µM
[21] = RPMI 5 mM glucose + 10% FBS, 15.4 µM
[22] = RPMI 5 mM glucose + 10% FBS, 46.1 µM
[23] = RPMI 5 mM glucose + 10% dialyzed FBS, 0.000781 µM
[24] = RPMI 5 mM glucose + 10% dialyzed FBS, 0.00234 µM
[25] = RPMI 5 mM glucose + 10% dialyzed FBS, 0.00702 µM
[26] = RPMI 5 mM glucose + 10% dialyzed FBS, 0.0211 µM
[27] = RPMI 5 mM glucose + 10% dialyzed FBS, 0.0632 µM
[28] = RPMI 5 mM glucose + 10% dialyzed FBS, 0.19 µM
[29] = RPMI 5 mM glucose + 10% dialyzed FBS, 0.569 µM
[30] = RPMI 5 mM glucose + 10% dialyzed FBS, 1.71 µM
[31] = RPMI 5 mM glucose + 10% dialyzed FBS, 5.12 µM
[32] = RPMI 5 mM glucose + 10% dialyzed FBS, 15.4 µM
[33] = RPMI 5 mM glucose + 10% dialyzed FBS, 46.1 µM

SMILES	cell viability [1]	cell viability [2]	cell viability [3]	cell viability [4]	cell viability [5]	cell viability [6]	cell viability [7]	cell viability [8]	cell viability [9]	cell viability [10]	cell viability [11]	cell viability [12]	cell viability [13]	cell viability [14]	cell viability [15]	cell viability [16]	cell viability [17]	cell viability [18]	cell viability [19]	cell viability [20]	cell viability [21]	cell viability [22]	cell viability [23]	cell viability [24]	cell viability [25]	cell viability [26]	cell viability [27]	cell viability [28]	cell viability [29]	cell viability [30]	cell viability [31]	cell viability [32]	cell viability [33]
CC\1=C(C(=O)N(\C=C1)C2=CC=C(C=C2)C3=NC=CO3)/C4=CC5=CN=C(N)N=C5C=C4	96.2%	95%	109%	99.8%	100%	103%	76.2%	84%	40.8%	36%	27%	87.3%	115%	127%	121%	108%	111%	97.4%	101%	38.5%	29.5%	21.3%	90%	104%	118%	102%	97.1%	97.4%	68.9%	72.1%	26.1%	20.4%	19.1%
CNC1[C@@H](O)C(O[C@@H]2C(O)C(O[C@H]3O[C@H]([C@@H](C)NC)CC[C@H]3N)[C@@H](N)C[C@H]2N)OC[C@]1(C)O (some centres undefined)	99.8%	96.4%	99.2%	95.1%	113%	106%	93.2%	97.7%	92.9%	88.5%	80.8%	105%	120%	94.2%	101%	92.2%	103%	97.9%	83.3%	90.4%	86.1%	98%	102%	101%	98.4%	106%	99.3%	104%	106%	108%	85.7%	114%	91.7%
C[C@@H]1COCCN1C\2=C\C(=O)N\3CC[C@H](N(CC4=CN=CC(=C4)Cl)C3=N2)C(F)(F)F	88%	83.8%	91.6%	97.5%	85.9%	97.8%	91.5%	94%	78.8%	43.2%	24.8%	109%	109%	120%	96.4%	115%	117%	122%	88.5%	74.4%	43.4%	25.1%	89.6%	92.3%	96.9%	90.9%	83.4%	98.7%	107%	89.2%	71.2%	42.4%	34.1%
Cc1cccc(-c2nn(C(=S)Nc3ccccc3)cc2-c2ccnc3ccccc23)n1	–	–	–	–	–	–	–	–	–	–	–	117%	124%	139%	131%	152%	130%	121%	126%	110%	118%	42.2%	–	–	–	–	–	–	–	–	–	–	–
c1cc(CN2CCCNCCNCCCNCC2)ccc1CN1CCCNCCNCCCNCC1	83.6%	85.7%	86.8%	20.1%	94.3%	101%	89.8%	96.9%	106%	116%	110%	70.8%	93.3%	83.8%	13.6%	85.7%	92.9%	87.1%	90.8%	94.1%	91.5%	89%	94.1%	84.4%	94.2%	20%	117%	118%	106%	115%	102%	125%	119%
CCn1c(-c2nonc2N)nc2cncc(CNC3CCNCC3)c21	119%	121%	126%	134%	137%	131%	129%	109%	96.1%	60.7%	30.8%	101%	125%	124%	143%	144%	152%	120%	61.5%	58.3%	18.9%	15.8%	123%	126%	113%	131%	118%	115%	137%	110%	100%	45.2%	22.7%
N=C(N)NC(=O)c1nc(Cl)c(N)nc1N	101%	104%	120%	111%	114%	104%	136%	114%	129%	124%	123%	101%	107%	108%	108%	118%	119%	117%	113%	113%	114%	120%	101%	122%	110%	108%	126%	124%	120%	126%	119%	116%	121%
CN(C)CCc1c[nH]c2ccc(C[C@H]3COC(=O)N3)cc12	72%	89.4%	97.7%	95.1%	99.3%	108%	96%	88.2%	72.9%	29.7%	7.45%	78.3%	85.5%	89%	97%	90.9%	88.7%	88.2%	73.8%	47.8%	13.3%	5.94%	88.8%	94%	89.5%	99.8%	95.7%	96.3%	93.7%	80.8%	75.6%	26%	7.13%
C[C@@]12O[C@@H](C[C@]1(O)CO)n1c3ccccc3c3c4c(c5c6ccccc6n2c5c31)CNC4=O	117%	125%	127%	109%	89.7%	65.5%	27.3%	18.4%	14.8%	11.8%	7.23%	–	–	–	–	–	–	–	–	–	–	–	118%	111%	96.4%	106%	65%	52.1%	20.2%	13%	8.04%	6.86%	5.81%
CC(C)Nc1cc(C(F)(F)F)cc2nc(NC(=O)c3cccnc3)nn12	113%	105%	101%	118%	119%	96.6%	102%	42.3%	26.5%	13.7%	5.96%	113%	112%	95.3%	110%	107%	89.2%	94.2%	18%	15.8%	8.3%	2.38%	126%	98.6%	116%	113%	102%	94%	101%	23.2%	16.3%	11.1%	4.75%
CCOc1cc(N)c(Cl)cc1C(=O)NCC1CN(Cc2ccc(F)cc2)CCO1 (centres undefined)	85.4%	110%	104%	100%	109%	112%	128%	114%	118%	119%	132%	99.8%	113%	107%	116%	114%	114%	95.5%	115%	109%	94.7%	90.3%	113%	110%	100%	109%	119%	122%	112%	115%	105%	104%	92.5%
CC(=O)O[C@@]1(CC[C@H]2[C@@H]3\C=C(C)/C4=C/C(=O)CC[C@]4(C)[C@H]3CC[C@]12C)C(C)=O	79.1%	80%	82%	82.7%	105%	99.4%	95.8%	99.2%	108%	98.4%	104%	89.3%	83.8%	86.7%	97.6%	93.5%	101%	100%	104%	95%	106%	99.7%	96.5%	96.7%	104%	109%	101%	100%	107%	115%	96.2%	108%	81.7%
NC(=O)c1ncn([C@@H]2O[C@H](CO)[C@@H](O)[C@H]2O)n1	96.4%	110%	116%	119%	104%	106%	101%	106%	117%	117%	80.4%	105%	115%	118%	115%	112%	115%	95.2%	95.9%	103%	123%	76.9%	106%	118%	121%	110%	113%	108%	104%	118%	111%	142%	85.7%
OC[C@H]1O[C@H]([C@@H](F)[C@@H]1O)N2\C=C/C(=O)NC2=O	106%	42.5%	111%	109%	108%	117%	122%	112%	90.8%	109%	106%	93.2%	113%	110%	101%	90.1%	105%	112%	97%	93.5%	91.2%	95.9%	105%	48.6%	99.8%	91.6%	96.4%	102%	99.1%	90.7%	74%	100%	87.5%
CC1(C)CCC(=C(CN2CCN(CC2)C3=CC=C(C=C3)C(=O)N[S+]([O-])(=O)C4=CC(=C(N[C@H](CCN5CCOCC5)CSC6=CC=CC=C6)C=C4)[S+]([O-])(=O)C(F)(F)F)\C1)/C7=CC=C(Cl)C=C7	124%	124%	126%	106%	80.9%	18.3%	11.3%	8.83%	8.56%	7.32%	5.38%	85.5%	108%	95.9%	82.8%	42.1%	19.6%	8.77%	6.49%	5.65%	5.78%	4.31%	111%	135%	100%	102%	49.6%	21%	9.94%	6.79%	6.8%	5.99%	4.42%
C[C@@H]1CN[C@H]2[C@@H](C)[C@@]\3(CC[C@H]\4[C@@H]5C/C=C6/C[C@@H](O)CC[C@]6(C)[C@H]5CC4=C3C)O[C@@H]2C1	78.3%	122%	119%	119%	129%	118%	127%	114%	114%	98.4%	84.6%	77.7%	119%	132%	141%	118%	115%	117%	120%	105%	109%	93.5%	–	–	–	–	–	–	–	–	–	–	–
